Measured values from ChEMBL document CHEMBL5649167, “The SUV4-20 inhibitor A-196 verifies a role for epigenetics in genomic integrity” (Nat Chem Biol, 2017).

Legend:
[1] = molecular target: Histone-lysine N-methyltransferase KMT5B (Homo sapiens, UniProt Q4FZB7); assay: Inhibition of recombinant human 6His-(Tev)-G-SUV420H1 (69 to 335 residues) using Biotin-tagged H4K20me1 and [3H-SAM] as substrate incubated for 2 hrs by scintillation proximity assay
[2] = molecular target: Histone-lysine N-methyltransferase KMT5C (Homo sapiens, UniProt Q86Y97); assay: Inhibition of human SUV420H2 using Biotin-tagged H4K20me1 and [3H-SAM] as substrate incubated for 2 hrs by scintillation proximity assay
[3] = Inhibition of H4K20me1 in human U2OS cells incubated for 48 hrs by Western blotting analysis; type: functional, cell-based
[4] = Inhibition of H4K20me2 in human U2OS cells incubated for 48 hrs by Western blotting analysis; type: functional, cell-based
[5] = Inhibition of H4K20me3 in human U2OS cells incubated for 48 hrs by Western blotting analysis; type: functional, cell-based
[6] = Inhibition of H4K20me1 in human LNCaP cells incubated for 48 hrs by Western blotting analysis; type: functional, cell-based
[7] = Inhibition of H4K20me2 in human LNCaP cells incubated for 48 hrs by Western blotting analysis; type: functional, cell-based
[8] = Inhibition of H4K20me3 in human LNCaP cells incubated for 48 hrs by Western blotting analysis; type: functional, cell-based
[9] = Inhibition of H4K20me1 in human U2OS cells assessed as increase in methylation level incubated for 72 hrs by Hoechst staining based high content microscopy; type: functional, cell-based
[10] = Inhibition of H4K20me3 in human U2OS cells assessed as decrease in methylation level incubated for 72 hrs by Hoechst staining based high content microscopy; type: functional, cell-based
[11] = Inhibition of H4K20me1 in human PC-3 cells assessed as increase in methylation level incubated for 72 hrs by Hoechst staining based high content microscopy; type: functional, cell-based; settings: PC-3, 72 h
[12] = Inhibition of H4K20me3 in human PC-3 cells assessed as decrease in methylation level incubated for 72 hrs by Hoechst staining based high content microscopy; type: functional, cell-based; settings: PC-3, 72 h
U2OS = assay: Antiproliferative activity against human U2OS cells assessed as change in number of nuclei incubated for 72 hrs by Hoechst staining based high content microscopy; type: functional, cell-based
PC-3 = assay: Antiproliferative activity against human PC-3 cells assessed as change in number of nuclei incubated for 72 hrs by Hoechst staining based high content microscopy; type: functional, cell-based; settings: PC-3, 72 h
HFF [13] = assay: Cytotoxicity against HFF cells assessed as cell viability at 1.5 to 100 uM incubated after 72 hrs; type: toxicity, cell-based; settings: human, dose 1.5-100 µM
HFF [14] = assay: Cytotoxicity against HFF cells assessed as cell viability upto 12.5 uM incubated for 48 hrs; type: toxicity, cell-based; settings: human
MEF = assay: Antiproliferative activity against mouse MEF cells assessed as loss of pericentric H4K20me3 at 10 uM incubated for 3 days by immunofluorescence analysis relative to control; type: functional; settings: time 3 day
B-cell [15] = assay: Induction of DNA repair in mouse B cells assessed as inhibition in ability of splenic cells to switch from IgM to IgG1 at 1 uM incubated for 2 days in the presence of LPS by flow cytometry analysis (Rvb=9.59%); type: functional; settings: 48 h, time 2 day
B-cell [16] = assay: Induction of DNA repair in mouse B cells assessed as inhibition in ability of splenic cells to switch from IgM to IgG1 at 10 uM incubated for 2 days in the presence of LPS by flow cytometry analysis (Rvb=9.59%); type: functional; settings: 48 h, time 2 day
B-cell [17] = assay: Induction of DNA repair in mouse B cells assessed as inhibition in ability of splenic cells to switch from IgM to IgG3 at 1 uM incubated for 4 days in the presence of LPS by flow cytometry analysis (Rvb=5.71%); type: functional; settings: 96 h, time 4 day
B-cell [18] = assay: Induction of DNA repair in mouse B cells assessed as inhibition in ability of splenic cells to switch from IgM to IgG3 at 10 uM incubated for 4 days in the presence of LPS by flow cytometry analysis (Rvb=5.71%); type: functional; settings: 96 h, time 4 day
B-cell [19] = assay: Induction of DNA repair in mouse B cells assessed as inhibition in ability of splenic cells to switch from IgM to IgE at 1 uM incubated for 3 days in the presence of LPS plus IL-4 by flow cytometry analysis (Rvb=1.97%); type: functional; settings: 72 h, time 3 day
B-cell [20] = assay: Induction of DNA repair in mouse B cells assessed as inhibition in ability of splenic cells to switch from IgM to IgE at 10 uM incubated for 3 days in the presence of LPS plus IL-4 by flow cytometry analysis (Rvb=1.97%); type: functional; settings: 72 h, time 3 day
[21] = molecular target: L-type calcium channel (verapamil binding site) (Homo sapiens, UniProt O60840+Q01668+Q13698+Q13936); assay: Inhibition of human L-type calcium channel verapamil binding site at 10 uM relative to control; type: protein assay
[22] = molecular target: KV channel (voltage-gated potassium channel) (Homo sapiens, UniProt O43525+O43526+O95259+P16389+P17658+P22001+P22459+P22460+P48547+P51787+P56696+Q03721+Q09470+Q12809+Q14003+Q14721+Q16322+Q6PIU1+Q8NCM2+Q8TAE7+Q8TDN1+Q8TDN2+Q92953+Q96KK3+Q96L42+Q96PR1+Q96RP8+Q9BQ31+Q9H252+Q9H3M0+Q9NR82+Q9NS40+Q9NSA2+Q9NZV8+Q9UIX4+Q9UJ96+Q9UK17+Q9ULD8+Q9ULS6+Q9UQ05); assay: Inhibition of human KV channel at 10 uM relative to control; type: protein assay
Adenosine receptor A1 = molecular target: T1, Adenosine receptor A1 (Homo sapiens, UniProt P30542); assay: Inhibition of human Adenosine receptor A1 assessed as inhibition constant
T1 sequence (P30542 whole entry): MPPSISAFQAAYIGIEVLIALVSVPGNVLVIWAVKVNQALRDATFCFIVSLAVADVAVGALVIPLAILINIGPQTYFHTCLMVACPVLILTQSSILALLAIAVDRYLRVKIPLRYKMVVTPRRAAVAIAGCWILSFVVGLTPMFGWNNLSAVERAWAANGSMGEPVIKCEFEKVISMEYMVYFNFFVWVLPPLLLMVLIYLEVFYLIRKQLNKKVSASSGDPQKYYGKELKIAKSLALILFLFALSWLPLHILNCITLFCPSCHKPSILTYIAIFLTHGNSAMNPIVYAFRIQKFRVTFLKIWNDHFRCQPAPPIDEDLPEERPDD

Adenosine receptor A2a = Adenosine receptor A2a (Homo sapiens, UniProt P29274); assay: Inhibition of human Adenosine receptor A2a assessed as inhibition constant
[23] = Inhibition of human GABA-gated Cl- channel assessed as inhibition constant
Adenosine receptor A3 = molecular target: T2, Adenosine receptor A3 (Homo sapiens, UniProt P0DMS8); assay: Inhibition of human Adenosine receptor A3 assessed as inhibition constant
T2 sequence (P0DMS8 whole entry): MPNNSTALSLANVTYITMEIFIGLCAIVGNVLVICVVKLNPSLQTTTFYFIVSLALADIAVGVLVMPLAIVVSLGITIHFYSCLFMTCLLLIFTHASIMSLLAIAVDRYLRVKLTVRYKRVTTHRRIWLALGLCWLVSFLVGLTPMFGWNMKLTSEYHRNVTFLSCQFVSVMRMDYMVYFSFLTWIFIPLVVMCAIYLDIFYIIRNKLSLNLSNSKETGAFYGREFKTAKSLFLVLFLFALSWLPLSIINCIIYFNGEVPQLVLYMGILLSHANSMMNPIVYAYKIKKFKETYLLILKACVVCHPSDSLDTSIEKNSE

[24] = molecular target: Kappa-type opioid receptor (Homo sapiens, UniProt P41145); assay: Inhibition of human Kappa-type opioid receptor assessed as inhibition constant
Substance-K receptor = molecular target: T3, Substance-K receptor (Homo sapiens, UniProt P21452); assay: Inhibition of human Substance-K receptor assessed as inhibition constant
T3 sequence (P21452 whole entry): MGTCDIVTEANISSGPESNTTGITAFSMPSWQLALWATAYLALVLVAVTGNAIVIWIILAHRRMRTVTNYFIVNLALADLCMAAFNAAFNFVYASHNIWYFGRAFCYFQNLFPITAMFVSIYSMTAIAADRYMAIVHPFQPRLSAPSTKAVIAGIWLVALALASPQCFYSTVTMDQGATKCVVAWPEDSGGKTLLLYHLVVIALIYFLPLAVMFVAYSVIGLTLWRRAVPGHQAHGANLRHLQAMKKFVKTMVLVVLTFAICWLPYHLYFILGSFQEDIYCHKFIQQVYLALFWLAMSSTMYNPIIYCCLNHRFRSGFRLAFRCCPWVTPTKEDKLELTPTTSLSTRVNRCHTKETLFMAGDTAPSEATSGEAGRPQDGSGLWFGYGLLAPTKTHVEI

[25] = molecular target: Delta-type opioid receptor (Homo sapiens, UniProt P41143); assay: Inhibition of human Delta-type opioid receptor assessed as inhibition constant
[26] = Inhibition of human 5-HT3 receptor expressed in HEK293T cells at 10 uM relative to control; settings: HEK-293T

Sequence of Histone-lysine N-methyltransferase KMT5C (Q86Y97 whole entry): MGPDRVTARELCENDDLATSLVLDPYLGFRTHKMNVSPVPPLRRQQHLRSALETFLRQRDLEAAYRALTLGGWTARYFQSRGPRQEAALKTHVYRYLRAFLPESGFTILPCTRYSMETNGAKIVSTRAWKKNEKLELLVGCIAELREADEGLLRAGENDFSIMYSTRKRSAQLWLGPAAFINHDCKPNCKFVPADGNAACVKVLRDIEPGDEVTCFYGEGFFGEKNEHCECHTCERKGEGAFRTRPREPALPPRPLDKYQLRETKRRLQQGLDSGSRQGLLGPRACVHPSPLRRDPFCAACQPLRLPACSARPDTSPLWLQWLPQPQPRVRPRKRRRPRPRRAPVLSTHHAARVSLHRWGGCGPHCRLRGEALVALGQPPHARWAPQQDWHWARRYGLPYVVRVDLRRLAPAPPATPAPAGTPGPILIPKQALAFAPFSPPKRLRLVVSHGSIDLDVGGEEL
Sequence of Histone-lysine N-methyltransferase KMT5B (Q4FZB7 whole entry, the tested form may be a part): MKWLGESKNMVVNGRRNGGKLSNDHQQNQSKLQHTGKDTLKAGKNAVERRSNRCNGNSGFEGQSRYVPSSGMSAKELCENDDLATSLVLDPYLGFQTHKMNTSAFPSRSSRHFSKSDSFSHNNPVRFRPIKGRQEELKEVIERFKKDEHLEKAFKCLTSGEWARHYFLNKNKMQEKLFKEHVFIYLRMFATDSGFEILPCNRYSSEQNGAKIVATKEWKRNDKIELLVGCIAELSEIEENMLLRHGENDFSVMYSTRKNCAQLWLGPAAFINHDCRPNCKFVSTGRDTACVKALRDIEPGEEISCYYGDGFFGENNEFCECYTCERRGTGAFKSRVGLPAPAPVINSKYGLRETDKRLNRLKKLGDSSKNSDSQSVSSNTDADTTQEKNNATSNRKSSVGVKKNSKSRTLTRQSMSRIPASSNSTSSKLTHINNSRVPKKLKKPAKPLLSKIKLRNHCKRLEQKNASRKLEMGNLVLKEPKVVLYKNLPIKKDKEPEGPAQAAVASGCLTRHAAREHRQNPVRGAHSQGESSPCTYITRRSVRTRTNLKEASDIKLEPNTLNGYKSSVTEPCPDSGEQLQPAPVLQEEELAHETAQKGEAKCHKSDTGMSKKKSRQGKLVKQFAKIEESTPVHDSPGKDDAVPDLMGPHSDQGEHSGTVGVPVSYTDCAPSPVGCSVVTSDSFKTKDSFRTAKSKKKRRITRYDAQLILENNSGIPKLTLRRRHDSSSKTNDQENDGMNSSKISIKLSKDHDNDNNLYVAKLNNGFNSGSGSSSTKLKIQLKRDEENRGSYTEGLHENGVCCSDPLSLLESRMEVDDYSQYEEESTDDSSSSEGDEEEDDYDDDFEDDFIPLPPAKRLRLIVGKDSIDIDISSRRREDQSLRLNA
Sequence of Adenosine receptor A2a (P29274 whole entry): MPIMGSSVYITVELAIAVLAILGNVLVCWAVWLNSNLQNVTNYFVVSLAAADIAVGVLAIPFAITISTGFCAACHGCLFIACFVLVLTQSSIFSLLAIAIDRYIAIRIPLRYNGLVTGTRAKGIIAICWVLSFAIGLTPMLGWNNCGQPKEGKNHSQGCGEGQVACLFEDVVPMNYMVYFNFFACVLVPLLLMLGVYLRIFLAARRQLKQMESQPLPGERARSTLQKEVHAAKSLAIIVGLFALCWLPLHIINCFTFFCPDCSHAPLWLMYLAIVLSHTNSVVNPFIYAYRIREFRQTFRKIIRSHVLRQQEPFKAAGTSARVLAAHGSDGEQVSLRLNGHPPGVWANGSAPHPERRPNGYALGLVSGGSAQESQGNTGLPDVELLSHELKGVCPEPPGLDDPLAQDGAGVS
Sequence of Delta-type opioid receptor (P41143 whole entry): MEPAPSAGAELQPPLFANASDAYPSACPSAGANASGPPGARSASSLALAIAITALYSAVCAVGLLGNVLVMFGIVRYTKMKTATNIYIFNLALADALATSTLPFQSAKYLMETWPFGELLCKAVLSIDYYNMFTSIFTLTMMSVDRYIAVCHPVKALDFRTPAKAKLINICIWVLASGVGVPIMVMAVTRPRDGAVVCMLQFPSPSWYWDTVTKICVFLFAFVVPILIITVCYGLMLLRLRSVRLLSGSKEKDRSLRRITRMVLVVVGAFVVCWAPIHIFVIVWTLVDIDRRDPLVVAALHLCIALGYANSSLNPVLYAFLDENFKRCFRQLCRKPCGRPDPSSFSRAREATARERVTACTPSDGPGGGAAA
Sequence of Kappa-type opioid receptor (P41145 whole entry): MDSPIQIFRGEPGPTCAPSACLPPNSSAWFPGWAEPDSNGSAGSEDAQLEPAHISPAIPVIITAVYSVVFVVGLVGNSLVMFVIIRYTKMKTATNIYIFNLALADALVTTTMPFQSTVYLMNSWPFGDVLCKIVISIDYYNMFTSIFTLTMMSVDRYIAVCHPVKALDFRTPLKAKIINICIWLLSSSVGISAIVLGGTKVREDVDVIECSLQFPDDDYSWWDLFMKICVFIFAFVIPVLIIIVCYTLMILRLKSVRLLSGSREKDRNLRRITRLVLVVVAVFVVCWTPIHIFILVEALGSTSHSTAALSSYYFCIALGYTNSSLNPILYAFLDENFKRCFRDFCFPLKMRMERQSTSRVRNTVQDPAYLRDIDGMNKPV

SMILES: Clc1cc2c(NC3CCCC3)nnc(-c3ccncc3)c2cc1Cl
- IC50 [1]: 25 nM
- IC50 [2]: 144 nM
- IC50 [3]: 736 nM
- IC50 [4]: 262 nM
- IC50 [5]: 370 nM
- IC50 [6]: 799 nM
- IC50 [7]: 511 nM
- IC50 [8]: 211 nM
- IC50 [9]: 1910 nM
- IC50 [10]: 502 nM
- IC50 [11]: 686 nM
- IC50 [12]: 521 nM
- IC50 (U2OS): > 20000 nM
- IC50 (PC-3): > 20000 nM
- Activity (HFF [13]): Non-Toxic
- Activity (HFF [14]): Non-Toxic
- Activity (MEF): 97%
- inhibition at 1 µM (B-cell [15]): 5.87%
- inhibition at 10 µM (B-cell [16]): 3.68%
- inhibition at 1 µM (B-cell [17]): 3.79%
- inhibition at 10 µM (B-cell [18]): 3.85%
- inhibition at 1 µM (B-cell [19]): 1.47%
- inhibition at 10 µM (B-cell [20]): 0.73%
- inhibition at 10 µM [21]: -4%
- inhibition at 10 µM [22]: -18%
- Ki (Adenosine receptor A1): 21 nM
- Ki (Adenosine receptor A2a): 28 nM
- Ki [23]: 1800 nM
- Ki (Adenosine receptor A3): 2000 nM
- Ki [24]: > 10000 nM
- Ki (Substance-K receptor): 4100 nM
- Ki [25]: 9000 nM
- inhibition at 10 µM [26]: 32%
